Data published in paper PMC5453931, “Cathelicidin-trypsin inhibitor loop conjugate represents a promising antibiotic candidate with protease stability” (Scientific Reports, 2017).
Converted amounts (≈) assume the structure as drawn. Like-named read-outs stand apart in the source and are kept apart here. Where a SMILES comes first, the peptide text is derived from it.

What was measured:
Assay type in all cases: cell-based
B. subtilis = settings: 18 h
Description: (§1) A two-fold broth microdilution method described in our previous paper was used to determine the antimicrobial activities of parental and hybrid peptides. More than 30 strains including Gram-negative bacteria, Gram-positive bacteria and fungi were used in the current assay, in which the standard strains were stored in our lab and the clinical strains were collected from local hospitals. Briefly, bacteria were incubated in Mueller-Hinton broth (MH broth) at 37 °C to exponential phase and diluted to 10^6 CFU/mL. A serial dilution of peptide sample were prepared in 96-well microtiter plates (50 μL) and mixed with equal volume of microbial inoculums (50 μL). The plate was slowly shaken in the microbial incubator, and measured at A595 after incubation at 37 °C for 18 h. The minimal concentrations at which no microbial growth occurred were recorded as MIC (minimal inhibitory concentration) values. The traditional antibiotic ampicillin was used as positive control. The results are shown in an average of the MICs obtained from three independent experiments.

C. albican = settings: 18 h
Description: as §1

E. coli = settings: 18 h
Description: as §1

P. aeruginosa = settings: 18 h
Description: as §1

P. mirabilis = settings: 18 h
Description: as §1

S. aureus = settings: 18 h
Description: as §1

S. dysenteria = settings: two-fold broth microdilution, MH broth, 37 °C, 18 h, A595; mean of three independent experiments in duplicate
Description: as §1

Vibrio Parahaemolyticus = assay: MIC, two-fold broth microdilution; settings: Vibrio parahaemolyticus, 18 h, read-out: MIC Vibrio Parahaemolyticus
Description: as §1

[1] = two-fold broth microdilution, MH broth, 37 °C, A595, mean of three independent experiments in duplicate

| Compound | MIC B. subtilis (B. subtilis) | MIC C. albican (C. albican) | MIC E. coli (E. coli) | MIC P. aeruginosa (P. aeruginosa) | MIC P. mirabilis (P. mirabilis) | MIC S. aureus (S. aureus) | MIC S. dysenteria (S. dysenteria) | also measured |
| --- | --- | --- | --- | --- | --- | --- | --- | --- |
| CC(C)C[C@H](NC(=O)[C@H](CCCNC(=N)N)NC(=O)[C@H](CCCCN)NC(=O)[C@H](Cc1ccccc1)NC(=O)[C@H](Cc1ccccc1)NC(=O)[C@@H](N)CCCCN)C(=O)N[C@@H](CC(C)C)C(=O)N[C@@H](CCCCN)C(=O)N[C@@H](CO)C(=O)N[C@H](C(=O)N[C@@H](CCCNC(=N)N)C(=O)N[C@@H](CCCNC(=N)N)C(=O)N[C@@H](C)C(=O)N[C@H](C(=O)N[C@@H](CCCCN)C(=O)N[C@@H](CCCCN)C(=O)N[C@@H](Cc1ccccc1)C(=O)N[C@@H](CCCNC(=N)N)C(N)=O)C(C)C)C(C)C [Hc2] (H-KFFKRLLKSVRRAVKKFR-NH2) | 18.75 µg/mL (≈ 8.13 µM) | 9.38 µg/mL (≈ 4.07 µM) | 9.38 µg/mL (≈ 4.07 µM) | 9.38 µg/mL (≈ 4.07 µM) | 9.38 µg/mL (≈ 4.07 µM) | 9.38 µg/mL (≈ 4.07 µM) | 2.34 µg/mL (≈ 1.01 µM) |  |
| CC(C)C[C@H](NC(=O)[C@H](CCCNC(=N)N)NC(=O)[C@H](CCCCN)NC(=O)[C@H](Cc1ccccc1)NC(=O)[C@H](Cc1ccccc1)NC(=O)[C@@H](N)CCCCN)C(=O)N[C@@H](CC(C)C)C(=O)N[C@@H](CCCCN)C(=O)N[C@@H](CO)C(=O)N[C@H](C(=O)N[C@@H](CCCNC(=N)N)C(=O)N[C@@H](CCCNC(=N)N)C(=O)N[C@@H](C)C(=O)N[C@H](C(=O)N[C@@H](CCCCN)C(=O)N[C@@H](CCCCN)C(N)=O)C(C)C)C(C)C [Hc4] (H-KFFKRLLKSVRRAVKK-NH2) |  | 75 µg/mL (≈ 37.4 µM) | 75 µg/mL (≈ 37.4 µM) | 150 µg/mL (≈ 74.9 µM) | 75 µg/mL (≈ 37.4 µM) | 75 µg/mL (≈ 37.4 µM) | 4.69 µg/mL (≈ 2.34 µM) |  |
| CC(C)C[C@H](NC(=O)[C@H](CCCNC(=N)N)NC(=O)[C@H](CCCCN)NC(=O)[C@H](Cc1ccccc1)NC(=O)[C@H](Cc1ccccc1)NC(=O)[C@@H](N)CCCCN)C(=O)N[C@@H](CC(C)C)C(=O)N[C@@H](CCCCN)C(=O)N[C@@H](CO)C(=O)N[C@H](C(=O)N[C@@H](CCCNC(=N)N)C(=O)N[C@@H](CCCNC(=N)N)C(=O)N[C@@H](C)C(=O)N[C@H](C(=O)N[C@@H](CCCCN)C(N)=O)C(C)C)C(C)C [Hc5] (H-KFFKRLLKSVRRAVK-NH2) | 150 µg/mL (≈ 80 µM) | 37.5 µg/mL (≈ 20 µM) | 37.5 µg/mL (≈ 20 µM) | 75 µg/mL (≈ 40 µM) | 18.75 µg/mL (≈ 10 µM) | 37.5 µg/mL (≈ 20 µM) | 4.69 µg/mL (≈ 2.5 µM) |  |
| CC(C)C[C@H](NC(=O)[C@H](CCCNC(=N)N)NC(=O)[C@H](CCCCN)NC(=O)[C@H](Cc1ccccc1)NC(=O)[C@H](Cc1ccccc1)NC(=O)[C@@H](N)CCCCN)C(=O)N[C@@H](CC(C)C)C(=O)N[C@@H](CCCCN)C(=O)N[C@@H](CO)C(=O)N[C@H](C(=O)N[C@@H](CCCNC(=N)N)C(=O)N[C@@H](CCCNC(=N)N)C(=O)N[C@@H](C)C(=O)N[C@H](C(N)=O)C(C)C)C(C)C [Hc6] (H-KFFKRLLKSVRRAV-NH2) | 150 µg/mL (≈ 85.9 µM) | 75 µg/mL (≈ 42.9 µM) | 75 µg/mL (≈ 42.9 µM) | 150 µg/mL (≈ 85.9 µM) | 37.5 µg/mL (≈ 21.5 µM) | 75 µg/mL (≈ 42.9 µM) | 18.75 µg/mL (≈ 10.7 µM) |  |
| CC(C)C[C@H](NC(=O)[C@H](CCCNC(=N)N)NC(=O)[C@H](CCCCN)NC(=O)[C@H](Cc1ccccc1)NC(=O)[C@H](Cc1ccccc1)NC(=O)[C@@H](N)CCCCN)C(=O)N[C@@H](CC(C)C)C(=O)N[C@@H](CCCCN)C(=O)N[C@@H](CO)C(=O)N[C@H](C(=O)N[C@@H](CCCNC(=N)N)C(=O)N[C@@H](CCCNC(=N)N)C(=O)N[C@@H](C)C(N)=O)C(C)C [Hc7] (H-KFFKRLLKSVRRA-NH2) |  |  |  | 150 µg/mL (≈ 91 µM) |  |  | 75 µg/mL (≈ 45.5 µM) |  |
| CC(C)C[C@H](NC(=O)[C@H](CC(C)C)NC(=O)[C@H](CCCNC(=N)N)NC(=O)[C@H](CCCCN)NC(=O)[C@@H](N)Cc1ccccc1)C(=O)N[C@@H](CCCCN)C(=O)N[C@@H](CO)C(=O)N[C@H](C(=O)N[C@@H](CCCNC(=N)N)C(=O)N[C@@H](CCCNC(=N)N)C(=O)N[C@@H](C)C(=O)N[C@H](C(=O)N[C@@H](CCCCN)C(=O)N[C@@H](CCCCN)C(=O)N[C@@H](Cc1ccccc1)C(=O)N[C@@H](CCCNC(=N)N)C(=O)N[C@@H](CCCCN)C(N)=O)C(C)C)C(C)C [Hc9] (H-FKRLLKSVRRAVKKFRK-NH2) |  | 150 µg/mL (≈ 69.5 µM) | 150 µg/mL (≈ 69.5 µM) | 150 µg/mL (≈ 69.5 µM) |  | 9.38 µg/mL (≈ 4.34 µM) | 18.75 µg/mL (≈ 8.68 µM) |  |
| CC(C)C[C@H](NC(=O)[C@H](CC(C)C)NC(=O)[C@@H](N)CCCNC(=N)N)C(=O)N[C@@H](CCCCN)C(=O)N[C@@H](CO)C(=O)N[C@H](C(=O)N[C@@H](CCCNC(=N)N)C(=O)N[C@@H](CCCNC(=N)N)C(=O)N[C@@H](C)C(=O)N[C@H](C(=O)N[C@@H](CCCCN)C(=O)N[C@@H](CCCCN)C(=O)N[C@@H](Cc1ccccc1)C(=O)N[C@@H](CCCNC(=N)N)C(=O)N[C@@H](CCCCN)C(N)=O)C(C)C)C(C)C [Hc11] (H-RLLKSVRRAVKKFRK-NH2) |  |  |  |  |  |  | 150 µg/mL (≈ 79.6 µM) |  |
| CC(C)C[C@H](NC(=O)[C@H](CC(C)C)NC(=O)[C@H](CCCNC(=N)N)NC(=O)[C@H](CCCCN)NC(=O)[C@@H](N)Cc1ccccc1)C(=O)N[C@@H](CCCCN)C(=O)N[C@@H](CO)C(=O)N[C@H](C(=O)N[C@@H](CCCNC(=N)N)C(=O)N[C@@H](CCCNC(=N)N)C(=O)N[C@@H](C)C(=O)N[C@H](C(=O)N[C@@H](CCCCN)C(=O)N[C@@H](CCCCN)C(=O)N[C@@H](Cc1ccccc1)C(N)=O)C(C)C)C(C)C [Hc15] (H-FKRLLKSVRRAVKKF-NH2) |  |  | 75 µg/mL (≈ 40 µM) |  |  |  | 37.5 µg/mL (≈ 20 µM) |  |
| CC[C@H](C)[C@H](NC(=O)[C@H](CC(C)C)NC(=O)[C@H](CCCNC(=N)N)NC(=O)[C@@H]1CCCN1C(=O)[C@H](CCCCN)NC(=O)[C@H](CCCCN)NC(=O)[C@H](CCCNC(=N)N)NC(=O)[C@H](Cc1ccccc1)NC(=O)[C@H](CCCCN)NC(=O)[C@H](CCCCN)NC(=O)[C@@H](NC(=O)[C@H](C)NC(=O)[C@H](CCCNC(=N)N)NC(=O)[C@H](CCCNC(=N)N)NC(=O)[C@@H](NC(=O)[C@H](CO)NC(=O)[C@H](CCCCN)NC(=O)[C@H](CC(C)C)NC(=O)[C@H](CC(C)C)NC(=O)[C@H](CCCNC(=N)N)NC(=O)[C@H](CCCCN)NC(=O)[C@H](Cc1ccccc1)NC(=O)[C@H](Cc1ccccc1)NC(=O)[C@@H](N)CCCCN)C(C)C)C(C)C)C(=O)NCC(=O)N[C@@H](CC(C)C)C(=O)N[C@@H](CO)C(=O)N[C@H](C(=O)N[C@@H](CC(C)C)C(=O)N[C@@H](CC(C)C)C(=O)O)[C@@H](C)O [Hc-CATH, reference compound] (H-KFFKRLLKSVRRAVKKFRKKPRLIGLSTLL-OH) |  |  |  |  |  |  | 0.59 µg/mL (≈ 0.163 µM) | MIC B. subtilis (B. subtilis; [1]): 75 µg/mL (≈ 20.7 µM); MIC C. albican (C. albican; [1]): 4.69 µg/mL (≈ 1.29 µM); MIC E. coli (E. coli; [1]): 2.34 µg/mL (≈ 0.645 µM); MIC P. aeruginosa (P. aeruginosa; [1]): 18.75 µg/mL (≈ 5.17 µM); MIC P. mirabilis (P. mirabilis; [1]): 4.69 µg/mL (≈ 1.29 µM); MIC S. aureus (S. aureus; [1]): 4.69 µg/mL (≈ 1.29 µM) |
| C[C@@H](O)[C@H]1C(=O)N2C(C(=O)O)=C(S[C@@H]3CN[C@H](C(=O)N(C)C)C3)[C@H](C)[C@H]12 [Meropenem, reference compound] |  |  |  |  |  |  |  | MIC (Vibrio Parahaemolyticus): 0.47 µg/mL (≈ 1.23 µM) |
